Test results as given in the supplement of paper PMC10627819.

Assays:
S. pneumoniae D39V [1] = assay: fitness (endpoint OD595 vs no drug) (fraction); higher = more growth
Outline: (§1)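 Fitness was measured as bacterial growth in 384-well plates inoculated at OD595 0.01 (30 µl, or 55 µl for S. pneumoniae). Media were TSB, LB Lennox or CY, at 37 °C. OD595 was read every 30 min for 14 h and background-subtracted against the first reading. Fitness is OD595 at the transition into stationary phase divided by the robust mean of no-drug control wells, capped at 1.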

S. aureus DSM 20231 [2] = assay: as above
Outline: as §1

S. aureus Newman [3] = assay: as above
Outline: as §1

S. pneumoniae D39V [4] = assay: Bliss interaction score (quartile over a dose matrix) (fitness difference); higher = more antagonism (negative = synergy)
Outline: (§2)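 The Bliss score is observed fitness minus expected fitness, where the expected value is the product of single-drug fitness values inferred from combination data. Fitness is OD595 at entry into stationary phase normalised to the plate's robust no-drug mean and capped at 1. Scores are reported as quartiles spanning technical, biological and donor/recipient replicates.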

S. aureus DSM 20231 [5] = assay: as above
Outline: as §2

B. subtilis 168 = assay: as above
Outline: as §2

S. aureus Newman [6] = assay: as above
Outline: as §2
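Throughout, for Bliss interaction score (quartile over a dose matrix): first quartile when negative (synergy) and third quartile when positive (antagonism).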
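Throughout, for fitness (endpoint OD595 vs no drug): OD595 on entry to stationary phase over no-drug wells; at most 1.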

CC1(C)S[C@@H]2[C@H](NC(=O)[C@H](N)c3ccc(O)cc3)C(=O)N2[C@H]1C(=O)O [Amoxicillin] + CN[C@@H]1[C@H](O)[C@H](NC)[C@H]2O[C@@]3(O)C(=O)C[C@@H](C)O[C@H]3O[C@@H]2[C@H]1O [Spectinomycin]
fitness
Settings | partner 4 µg/mL | partner 8 µg/mL | partner 16 µg/mL
S. aureus DSM 20231 [2], first compound 0.0625 µg/mL | 0.649 | 0.63 | 0.572
S. aureus DSM 20231 [2], first compound 0.125 µg/mL | 0.414 | – | –
S. aureus DSM 20231 [2], first compound 0.25 µg/mL | – | 0.148 | –
S. aureus Newman [3], first compound 0.0625 µg/mL | 0.874 | 0.876 | 0.823
S. aureus Newman [3], first compound 0.125 µg/mL | 0.875 | 0.861 | 0.816
S. aureus Newman [3], first compound 0.25 µg/mL | 0.863 | 0.826 | –
S. pneumoniae D39V [1], first compound 0.0008 µg/mL | 0.962 | 0.911 | –
S. pneumoniae D39V [1], first compound 0.0015 µg/mL | 0.975 | 0.94 | 0.887
S. pneumoniae D39V [1], first compound 0.003 µg/mL | 0.882 | 0.89 | 0.826

one replicate
Settings | fitness
S. aureus DSM 20231 [2], first compound 0.0625 µg/mL, partner 32 µg/mL | 0.533
S. aureus DSM 20231 [2], first compound 0.0625 µg/mL, partner 64 µg/mL | 0.0322
S. aureus DSM 20231 [2], first compound 0.125 µg/mL, partner 32 µg/mL | 0.302
S. aureus DSM 20231 [2], first compound 0.125 µg/mL, partner 64 µg/mL | 0.0172
S. aureus DSM 20231 [2], first compound 0.25 µg/mL, partner 32 µg/mL | 0.0187
S. aureus DSM 20231 [2], first compound 0.25 µg/mL, partner 64 µg/mL | 0.0033
S. aureus DSM 20231 [2], first compound 0.5 µg/mL, partner 4 µg/mL | 0.0014
S. aureus DSM 20231 [2], first compound 0.5 µg/mL, partner 8 µg/mL | 0.0081
S. aureus DSM 20231 [2], first compound 0.5 µg/mL, partner 16 µg/mL | 0
S. aureus Newman [3], first compound 0.0625 µg/mL, partner 32 µg/mL | 0.373
S. aureus Newman [3], first compound 0.0625 µg/mL, partner 64 µg/mL | 0.0208
S. aureus Newman [3], first compound 0.125 µg/mL, partner 32 µg/mL | 0.308
S. aureus Newman [3], first compound 0.125 µg/mL, partner 64 µg/mL | 0.03
S. aureus Newman [3], first compound 0.25 µg/mL, partner 32 µg/mL | 0.141
S. aureus Newman [3], first compound 0.25 µg/mL, partner 64 µg/mL | 0.0162
S. pneumoniae D39V [1], first compound 0.0008 µg/mL, partner 16 µg/mL | 0.951
S. pneumoniae D39V [1], first compound 0.006 µg/mL, partner 4 µg/mL | 0.274
S. pneumoniae D39V [1], first compound 0.006 µg/mL, partner 8 µg/mL | 0.329
S. pneumoniae D39V [1], first compound 0.006 µg/mL, partner 16 µg/mL | 0.416

Settings | Bliss interaction score
B. subtilis 168 | -0.0495
S. aureus DSM 20231 [5] | 0.0589
S. aureus Newman [6] | 0.0408
S. pneumoniae D39V [4] | 0.0712

CC1(C)S[C@@H]2[C@H](NC(=O)[C@H](N)c3ccc(O)cc3)C(=O)N2[C@H]1C(=O)O [Amoxicillin] + Cc1onc(-c2ccccc2)c1C(=O)N[C@@H]1C(=O)N2[C@@H]1SC(C)(C)[C@@H]2C(=O)O [Oxacillin]
fitness, S. pneumoniae D39V [1], one replicate
Settings | partner 0.005 µg/mL | partner 0.01 µg/mL | partner 0.02 µg/mL
first compound 0.0008 µg/mL | ≥ 1 | – | –
first compound 0.006 µg/mL | 0.587 | 0.476 | 0.147

Settings | fitness
S. aureus DSM 20231 [2], first compound 0.0625 µg/mL, partner 0.0156 µg/mL | 0.52
S. aureus DSM 20231 [2], first compound 0.0625 µg/mL, partner 0.0312 µg/mL | 0.56
S. aureus DSM 20231 [2], first compound 0.0625 µg/mL, partner 0.0625 µg/mL | 0.459
S. aureus DSM 20231 [2], first compound 0.125 µg/mL, partner 0.0156 µg/mL | 0.342
S. aureus DSM 20231 [2], first compound 0.125 µg/mL, partner 0.0625 µg/mL | 0.263
S. aureus DSM 20231 [2], first compound 0.25 µg/mL, partner 0.0156 µg/mL | 0.107
S. aureus DSM 20231 [2], first compound 0.25 µg/mL, partner 0.0312 µg/mL | 0.0945
S. aureus DSM 20231 [2], first compound 0.25 µg/mL, partner 0.0625 µg/mL | 0.06
S. aureus DSM 20231 [2], first compound 0.5 µg/mL, partner 0.0156 µg/mL | 0.0188
S. aureus DSM 20231 [2], first compound 0.5 µg/mL, partner 0.0312 µg/mL | 0.0143
S. aureus DSM 20231 [2], first compound 0.5 µg/mL, partner 0.0625 µg/mL | 0.021
S. aureus Newman [3], first compound 0.0625 µg/mL, partner 0.0156 µg/mL | 0.724
S. aureus Newman [3], first compound 0.0625 µg/mL, partner 0.0312 µg/mL | 0.651
S. aureus Newman [3], first compound 0.0625 µg/mL, partner 0.0625 µg/mL | 0.575
S. aureus Newman [3], first compound 0.125 µg/mL, partner 0.0156 µg/mL | 0.674
S. aureus Newman [3], first compound 0.125 µg/mL, partner 0.0625 µg/mL | 0.547
S. aureus Newman [3], first compound 0.25 µg/mL, partner 0.0156 µg/mL | 0.663
S. pneumoniae D39V [1], first compound 0.0008 µg/mL, partner 0.01 µg/mL | 0.985
S. pneumoniae D39V [1], first compound 0.0008 µg/mL, partner 0.02 µg/mL | 0.831
S. pneumoniae D39V [1], first compound 0.0008 µg/mL, partner 0.04 µg/mL | 0.33
S. pneumoniae D39V [1], first compound 0.0015 µg/mL, partner 0.005 µg/mL | ≥ 1
S. pneumoniae D39V [1], first compound 0.0015 µg/mL, partner 0.01 µg/mL | 0.977
S. pneumoniae D39V [1], first compound 0.0015 µg/mL, partner 0.02 µg/mL | 0.861
S. pneumoniae D39V [1], first compound 0.0015 µg/mL, partner 0.04 µg/mL | 0.266
S. pneumoniae D39V [1], first compound 0.003 µg/mL, partner 0.005 µg/mL | 0.957
S. pneumoniae D39V [1], first compound 0.003 µg/mL, partner 0.01 µg/mL | 0.882
S. pneumoniae D39V [1], first compound 0.003 µg/mL, partner 0.02 µg/mL | 0.825
S. pneumoniae D39V [1], first compound 0.003 µg/mL, partner 0.04 µg/mL | 0.12

Settings | Bliss interaction score
B. subtilis 168 | 0.031
S. aureus DSM 20231 [5] | 0.104
S. aureus Newman [6] | 0.0431
S. pneumoniae D39V [4] | -0.0929

CCN(CC)CCOC(=O)c1ccc(N)cc1 [Procaine] + Cn1nnc(-c2ccc(-c3ccc(N4C[C@H](CO)OC4=O)cc3F)cn2)n1 [Tedizolid]
fitness
Settings | first compound 85.5 µg/mL | first compound 171 µg/mL | first compound 342 µg/mL
S. aureus DSM 20231 [2], partner 0.0625 µg/mL | 0.789 | 0.887 | 0.81
S. aureus DSM 20231 [2], partner 0.25 µg/mL | 0.067 | 0.0661 | 0.0739
S. aureus Newman [3], partner 0.0625 µg/mL | ≥ 1 | 0.972 | 0.972
S. aureus Newman [3], partner 0.125 µg/mL | 0.969 | 0.939 | 0.951
S. pneumoniae D39V [1], partner 0.03125 µg/mL | 0.989 | 0.975 | 0.97
S. pneumoniae D39V [1], partner 0.0625 µg/mL | 0.954 | 0.943 | 0.973
S. pneumoniae D39V [1], partner 0.125 µg/mL | 0.803 | 0.862 | 0.796

fitness, S. pneumoniae D39V [1], one replicate
Settings | first compound 85.5 µg/mL | first compound 171 µg/mL | first compound 342 µg/mL
partner 0.25 µg/mL | 0.67 | 0.744 | 0.695
partner 0.5 µg/mL | 0.282 | 0.311 | 0.353

Settings | Bliss interaction score
B. subtilis 168 | -0.0545
S. aureus DSM 20231 [5] | -0.0772
S. aureus Newman [6] | 0.0692
S. pneumoniae D39V [4] | -0.0797
